Assay results from patent US6060608A, “Analogs of CC-1065 and the duocarmycins” (The Scripps Research Institute, priority 1999, dated 2000).
pIC50: −log10 of the molar value. Read-outs that look alike come from different tables or passages of the source.

Legend:
w794 duplex DNA = assay: DNA alkylation selectivity and efficiency within w794 DNA, thermally-induced strand cleavage and PAGE; format: biochemical, SV40; settings: for DNA alkylation efficiency, natural/unnatural enantiomer ratio: (+)/ent-(-)
Source text: DNA Alkylation Selectivity and Efficiency. The DNA alkylation properties of the agents were examined within w794 duplex DNA, a 144 base-pair segment of duplex DNA for which comparative results are available for related agents. The alkylation site identification and the assessment of the relative selectivity among the available sites were obtained by thermally-induced strand cleavage of the singly 5' end-labeled duplex DNA after exposure to the agents. Following treatment of the end-labeled duplex DNA with a range of agent concentrations, the unbound agent was removed by EtOH precipitation of the DNA. Redissolution of the DNA in aqueous buffer, thermolysis (100° C., 30 min) to induce strand cleavage at the sites of DNA alkylation, denaturing high resolution polyacrylamide gel electrophoresis (PAGE) adjacent to Sanger dideoxynucleotide sequencing standards, and autoradiography led to identification of the DNA cleavage and alkylation sites. The DNA alkylation reaction selectivities observed under the incubation conditions for the agents detailed herein have proven identical to the alkylation selectivities observed with shorter or extended reaction periods or when the reactions were conducted at different temperatures (37 or 4° C., 0.5-7 d). As discussed below, the rates and efficiencies but not final relative efficiencies of DNA alkylation were altered by changing the reaction temperatures.
DNA Alkylation Properties. […] The DNA alkylation reaction was examined within w794 DNA for which comparative results are available for past agents. The alkylation site identification was obtained by thermal strand cleavage of the singly 5' end-labeled duplex DNA after exposure to the agents. Following treatment of the labeled DNA with a range of agent concentrations, the unbound agent was removed by EtOH precipitation of the DNA. Redissolution of the DNA in aqueous buffer, thermolysis at 100° C. (30 min) to induce depurination and strand cleavage at the adenine N3 or guanine N3 minor groove alkylation sites, denaturing high resolution PAGE adjacent to Sanger sequencing standards and autoradiography provided the DNA cleavage and alkylation sites.
DNA Alkylation Studies: selectivity and Efficiency. General procedures, the preparation of singly ^32 P 5' end-labeled double stranded DNA, the agent binding studies, gel electrophoresis, and autoradiography were conducted according to standard procedures. Eppendorf tubes containing the 5' end-labeled DNA (9 μL) in TE buffer (10 mM Tris, 1 mM EDTA, pH 7.5) were treated with the agent in DMSO (1 μL at the specified concentration). The solution was mixed by vortexing and brief centrifugation and subsequently incubated at 4 or 25° C. for 24 h (natural enantiomers) and 25 or 37° C. (unnatural enantiomers) for 72 h. The covalently modified DNA was separated from unbound agent by EtOH precipitation and resuspended in TE buffer (10 μL). The solution of DNA in an Eppendorf tube sealed with parafilm was warmed at 100° C. for 30 min to induce cleavage at the alkylation sites, allowed to cool to 25° C. and centrifuged. Formamide dye (0.03% xylene cyanol FF, 0.03% bromophenol blue, 8.7% Na2 EDTA 250 mM) was added (5 μL) to the supernatant. Prior to electrophoresis, the sample was denatured by warming at 100° C. for 5 min, placed in an icebath, and centrifuged, and the supernatant (3 μL) was loaded directly onto the gel. Sanger dideoxynucleotide sequencing reactions were run as standards adjacent to the reaction samples. Polyacrylamide gel electrophoresis (PAGE) was run on an 8% sequencing gel under denaturing conditions (8 M urea) in TBE buffer (100 mM Tris, 100 mM boric acid, 0.2 mM Na2 EDTA) followed by autoradiography.
DNA Alkylation of w794 DNA. Eppendorf tubes containing the 5'-end labeled DNA (9 μL) in TE buffer (10 mM Tris, 1 mM EDTA, pH 7.2) were treated with the agent in DMSO (1 μL at the specified concentration). […]

L1210 = assay: In vitro cytotoxic activity, L1210; settings: for cytotoxic activity, ring opened precursor 115 versus cyclopropane 116: L1210; for pIC50: Mus musculus, L1210, read-out: cytotoxic activity IC50
[1] = Aqueous solvolysis reactivity followed by UV; format: physicochemical
Description: The reactivity of 217-219 was assessed by following the solvolysis spectrophotometrically by UV at both pH 3 (50% CH3 OH-buffer, buffer=4:1:20 (v/v/v) 0.1 M citric acid, 0.2 M Na2 HPO4, H2 O) and pH 7 (1:1 H2 O--CH3 OH) measuring both the disappearance of the long-wavelength absorption band of the F2 CBI chromophore and the appearance of a short-wavelength absorption band attributable to the ring open products (FIG. 31).
Aqueous Solvolysis Reactivity. pH 3: N-BOC-CCBI (25, 100 μg) was dissolved in CH3 OH (1.5 mL) and mixed with pH 3 aqueous buffer (1.5 mL). The buffer contained 4:1:20 (v:v:v) 0.1 M citric acid, 0.2 M Na2 HPO4 and H2 O, respectively. The solvolysis solution was sealed and kept at 25° C. protected from light. The UV spectrum was measured at regular intervals every 2 h during the first day, every 12 h for another week, and every 24 h for an additional week. The decrease in the long-wavelength absorption at 322 nm and the increase in the short-wavelength absorption at 268 nm were monitored, FIG. 1.
pH 2: Samples of 25 (100 μg) and 26 (50 μg) were dissolved in CH3 OH (1.5 mL) and the solutions were mixed with aqueous buffer (pH 2.05, 1.5 mL). The buffer contained 4:1:20 (v:v:v) 1.0 M citric acid, 0.2 M Na2 HPO4, and H2 O, respectively. Immediately after mixing, the UV spectra of the solutions were measured against a reference solution containing CH3 OH (1.5 mL) and the aqueous buffer (1.5 mL) and these readings were used for the initial absorbance values. The solutions were stoppered, protected from the light, and allowed to stand at 25° C. UV spectra were recorded at regular intervals until constant values were obtained for the long and short wavelength absorbances. The solvolysis rate constants were determined from the slope of the lines obtained from linear least squares treatment of plots of ln[(Af -Ai)/(Af -A)] versus time using the short wavelength measurements for 25 and long wavelength measurements for 26).

[2] = natural enantiomers, 37° C., 72 h

## COc1cc2cc(C(=O)N3CC4C(F)(F)C45C3=CC(=O)c3ccccc35)[nH]c2c(OC)c1OC (racemic) [compound 224]
w794 duplex DNA
  DNA alkylation properties, comparison in words: steadily increase as the temperature was decreased from 37 to 25 to 4 °C
w794 duplex DNA; listed as F2 CBI-TMI
  DNA alkylation sequence selectivity: only adenine N3 alkylation was detected
w794 duplex DNA; racemic
  DNA alkylation less efficient than CBI-TMI: 100-1000 ×
w794 duplex DNA; racemic F2 CBI-TMI versus (+)-CBI-TMI
  DNA alkylation less efficient, by densitometry, average of several comparisons: 675-725 ×

## N#Cc1ccc2c(c1)C13CC1CN(C(=O)c1cc4c5c(ccc4[nH]1)N(C(N)=O)CC5)C3=CC2=O (single isomer, unassigned) [compound 39]
w794 duplex DNA
  DNA alkylation sequence selectivity: strong preference but not absolute requirement for the fourth 5' base to be A or T versus G or C

## COC(=O)c1cc2c([nH]1)C(=O)C=C1N(C(=O)c3cc4cc(OC)c(OC)c(OC)c4[nH]3)CC3CC123 (single isomer, unassigned) [ent-(-)-duocarmycin SA (2), reference compound]
w794 duplex DNA
  DNA alkylation properties, comparison in words: slightly more effective

## CC(C)(C)OC(=O)N1CC2CC23C1=CC(=O)c1ccccc13 (single isomer, unassigned; (+)) [(+)-N-BOC-CBI, reference compound]
w794 duplex DNA
  DNA alkylation efficiency, natural/unnatural enantiomer ratio: 5-10 ×

## COc1ccc2c(c1)C13CC1CN(C(=O)OC(C)(C)C)C3=CC2=O (single isomer, unassigned; (+)) [(+)-N-BOC-MCBI, reference compound]
w794 duplex DNA
  DNA alkylation efficiency, natural/unnatural enantiomer ratio: 1-2 ×

## COc1cc2cc(C(=O)N3C[C@H]4C[C@@]45C3=CC(=O)c3ccc(C#N)cc35)[nH]c2c(OC)c1OC [(+)-CCBI-TMI (35)]
w794 duplex DNA
  DNA alkylation properties, comparison in words: exhibited the same selectivity and efficiency of DNA alkylation
w794 duplex DNA; 25° C., 24 h
  concentration of detectable alkylation of high affinity site 5'-AATTA: 10^-6 to 10^-7 M

## CC(C)(C)OC(=O)N1C[C@H]2C[C@@]23C1=CC(=O)c1ccc(C#N)cc13 [(+)-N-BOC-CCBI, N-(tert-Butyloxycarbonyl)-7-cyano-1,2,9,9a-tetrahydrocyclopropa[c]benz[e]indol-4-one]
w794 duplex DNA
  DNA alkylation efficiency, natural/unnatural enantiomer ratio: 1-2 ×

## N#Cc1ccc2c(c1)[C@]13C[C@H]1CN(C(=O)c1cc4c5c(ccc4[nH]1)N(C(N)=O)CC5)C3=CC2=O [(-)-CCBI-CDPI1]
w794 duplex DNA
  DNA alkylation properties, comparison in words: (-)-CCBI-indole2 >(-)-CCBI-CDPI1>(-)-CCBI-TMI

## N#Cc1ccc2c(c1)[C@]13C[C@H]1CN(C(=O)c1cc4cc(NC(=O)c5cc6ccccc6[nH]5)ccc4[nH]1)C3=CC2=O [(-)-CCBI-indole2]
w794 duplex DNA
  DNA alkylation properties, comparison in words: (-)-CCBI-indole2 >(-)-CCBI-CDPI1>(-)-CCBI-TMI

## COc1ccc2c(c1)C13CC1CN(C(=O)OC(C)(C)C)C3=CC2=O (stereo not drawn) [N-BOC-MCBI, reference compound]
L1210; N-BOC derivatives
  relative cytotoxic potency of natural versus unnatural enantiomers: 2 ×
w794 duplex DNA; [2]
  concentration at which DNA alkylation is detectable: 10^-3 M
  concentration at which DNA alkylation is prominent: 10^-2 M

## CC(C)(C)OC(=O)N1CC(CCl)c2c1cc(O)c1ccc(C#N)cc21 (stereo not drawn) [compound 23, 3-(tert-Butyloxycarbonyl)-1-(chloromethyl)-8-cyano-5-hydroxy-1,2-dihydro-3H-benz[e]indole]
L1210
  cytotoxic activity of seco precursors versus cyclopropane containing agents: indistinguishable from the cyclopropane containing agents

## N#Cc1ccc2c(c1)C13CC1CNC3=CC2=O (stereo not drawn) [compound 26, 7-Cyano-1,2,9,9a-tetrahydrocyclopropa[c]benz[e]indol-4-one]
[1]; ch3oh-buffer 1:1, pH 2
  half-life: 91.5 h

## COc1cc2cc(C(=O)N3CC(CCl)c4c3cc(O)c3ccc(C#N)cc43)[nH]c2c(OC)c1OC (stereo not drawn) [compound 34]
L1210
  cytotoxic activity of seco precursors versus cyclopropane containing agents: indistinguishable from the cyclopropane containing agents

## N#Cc1ccc2c(O)cc3c(c2c1)C(CCl)CN3C(=O)c1cc2cc(NC(=O)c3cc4ccccc4[nH]3)ccc2[nH]1 (stereo not drawn) [compound 36]
L1210
  cytotoxic activity of seco precursors versus cyclopropane containing agents: indistinguishable from the cyclopropane containing agents

## N#Cc1ccc2c(O)cc3c(c2c1)C(CCl)CN3C(=O)c1cc2c3c(ccc2[nH]1)N(C(N)=O)CC3 (stereo not drawn) [compound 38]
L1210
  cytotoxic activity of seco precursors versus cyclopropane containing agents: indistinguishable from the cyclopropane containing agents

## CCOC(=O)C(=O)N1CC(CCl)c2c1cc(O)c1ccccc21 (stereo not drawn) [compound 114, 1-Chloromethyl-3-(2-ethoxy-1,2-dioxoethyl)-5-hydroxy-1,2-dihydro-3H-benz[e]indole]
w794 duplex DNA
  DNA alkylation properties, comparison in words: more effective

## CCOC(=O)CCC(=O)N1CC(CCl)c2c1cc(O)c1ccccc21 (stereo not drawn) [compound 115, 1-Chloromethyl-3-(4-ethoxy-1,4-dioxobutyl)-5-hydroxy-1,2-dihydro-3H-benz[e]indole]
L1210
  cytotoxic activity, ring opened precursor 115 versus cyclopropane 116: no distinctions were observed
  pIC50: 8.22 to 8.30

## CCOC(=O)CCC(=O)N1CC2CC23C1=CC(=O)c1ccccc13 (stereo not drawn) [compound 116, N^2-(4-ethoxy-1,4-dioxobutyl)-1,2,9,9a-tetrahydrocyclopropa[c]benz[e]indole-4-one]
L1210
  cytotoxic activity, ring opened precursor 115 versus cyclopropane 116: no distinctions were observed
  pIC50: 8.22 to 8.30
w794 duplex DNA; natural enantiomer
  more effective at alkylating DNA than N-BOC-CBI (123): 10-100 ×

## CC(=O)N1CC2C(F)(F)C23C1=CC(=O)c1ccccc13 (stereo not drawn) [compound 217]
[1]
  solvolysis reactivity relative to corresponding CBI agent lacking the two fluorines: 500 ×
  solvolysis stability/reactivity: No substantial distinction in the reactivity of 217 and 219 was observed

## O=C1C=C2NCC3C(F)(F)C23c2ccccc21 (stereo not drawn) [compound 218, 9,9-difluoro-1,2,9,9a-tetrahydrocyclopropa[c]benzo[e]indol-4-one]
[1]
  solvolysis reactivity relative to corresponding CBI agent lacking the two fluorines: approximately 220 ×
[1]; 50% ch3oh-buffer, pH 3
  half-life: 4.2 h
[1]; pH 3, 50% CH3OH-buffer
  solvolysis rate constant k: 4.54e-05 s⁻¹

## CC(C)(C)OC(=O)N1CC2C(F)(F)C23C1=CC(=O)c1ccccc13 (stereo not drawn) [compound 219]
[1]
  solvolysis stability/reactivity: No substantial distinction in the reactivity of 217 and 219 was observed
[1]; 1:1 h2o-ch3oh, pH 7
  half-life: 2.33 h
[1]; 50% ch3oh-buffer, pH 3
  half-life: 0.26 h
[1]; pH 3, 50% CH3OH-buffer
  solvolysis rate constant k: 0.000705 s⁻¹
[1]; pH 7, 1:1 H2O-CH3OH
  solvolysis rate constant k: 8.27e-05 s⁻¹

## COc1cc2cc(C(=O)N3C[C@@H]4C[C@]45C3=CC(=O)c3ccc(C#N)cc35)[nH]c2c(OC)c1OC [ent-(-)-CCBI-TMI (35)]
w794 duplex DNA
  DNA alkylation properties, comparison in words: nearly indistinguishable
w794 duplex DNA; listed as (-)-CCBI-TMI
  DNA alkylation properties, comparison in words: (-)-CCBI-indole2 >(-)-CCBI-CDPI1>(-)-CCBI-TMI
